Measured values published in patent publication US12187709B2 (Genentech, Inc., priority 2021, dated 2025).

Legend:
Cbl-b = Cbl-b (Homo sapiens (Human), UniProt Q13191); test: Cbl-b LCK Ub TR-FRET assay (Cbl-b Lck HTRF); type: biochemical; conditions: for IC50: Cbl-b LCK Ub TR-FRET; for (fold-selectivity) Cbl-b and C-Cbl Selectivity / fold-selectivity (Cbl-b over C-cbl): ratio C-cbl Lck HTRF IC50 / Cbl-b Lck HTRF IC50
Method in brief: (§1)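 Detection reagents added, brief spin, 20 min RT. IC50 fit normalized to no-LCK (low) and DMSO (high) controls.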

c-Cbl = c-Cbl (Homo sapiens (Human), UniProt P22681); test: C-Cbl LCK Ub TR-FRET assay (C-cbl Lck HTRF); type: biochemical
Method in brief: as §1

Cbl-b, sequence (Q13191 40-426): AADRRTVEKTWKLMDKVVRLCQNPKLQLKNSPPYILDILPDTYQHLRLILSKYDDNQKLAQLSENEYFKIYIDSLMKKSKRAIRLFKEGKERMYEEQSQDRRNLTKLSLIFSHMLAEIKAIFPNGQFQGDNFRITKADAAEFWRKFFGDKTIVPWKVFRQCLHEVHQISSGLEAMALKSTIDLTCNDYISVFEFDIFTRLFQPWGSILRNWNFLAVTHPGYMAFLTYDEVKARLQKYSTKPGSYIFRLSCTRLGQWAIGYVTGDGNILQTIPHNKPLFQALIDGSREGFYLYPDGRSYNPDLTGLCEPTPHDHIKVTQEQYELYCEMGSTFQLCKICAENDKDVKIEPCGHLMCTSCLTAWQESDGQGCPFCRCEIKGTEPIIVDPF
c-Cbl, sequence (P22681 47-435): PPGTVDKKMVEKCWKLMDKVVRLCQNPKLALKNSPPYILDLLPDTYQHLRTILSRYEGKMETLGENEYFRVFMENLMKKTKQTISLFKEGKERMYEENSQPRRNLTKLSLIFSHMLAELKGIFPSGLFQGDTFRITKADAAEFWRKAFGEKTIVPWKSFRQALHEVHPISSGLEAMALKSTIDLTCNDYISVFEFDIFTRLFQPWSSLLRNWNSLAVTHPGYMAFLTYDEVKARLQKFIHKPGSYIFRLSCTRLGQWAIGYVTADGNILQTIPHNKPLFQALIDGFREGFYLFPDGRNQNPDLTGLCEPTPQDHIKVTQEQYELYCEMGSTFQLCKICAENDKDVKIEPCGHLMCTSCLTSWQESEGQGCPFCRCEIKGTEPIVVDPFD

IC50 (Cbl-b; Example 121)	(fold-selectivity) Cbl-b and C-Cbl Selectivity (Cbl-b)	IC50 (c-Cbl)	IC50 (Cbl-b)	fold-selectivity (Cbl-b over C-cbl) (Cbl-b)	Structure (SMILES)
6.6 nM	1.8x	12 nM	–	–	Cn1cnnc1[C@@H](c1cccc(N2Cc3c(cc(CNCC4(C)CC4)cc3C(F)(F)F)C2=O)c1)C1COC1 (single isomer, unassigned) [Compound 465]
5.3 nM	0.85x	4.5 nM	–	–	Cn1cnnc1[C@@H](c1cccc(N2Cc3c(cc(CN[C@@H]4C[C@@H]5C[C@@H]5C4)cc3C(F)(F)F)C2=O)c1)C1COC1 (single isomer, unassigned) [Compound 469]
13 nM	3.2x	42 nM	–	–	Cn1cnnc1[C@@H](c1cccc(N2Cc3c(cc(CN[C@H]4[C@@H]5COC[C@@H]54)cc3C(F)(F)F)C2=O)c1)C1COC1 (single isomer, unassigned) [Compound 472]
–	–	2.5 nM	3.6 nM	(0.69x)	CCOc1cc([C@]2(c3nncn3C)C[C@@H](C)C2)cc(N2Cc3c(cc(CNC4(C)CCC4)cc3C(F)(F)F)C2=O)n1 [Compound 3, 2-(6-ethoxy-4-((1s,3s)-3-methyl-1-(4-methyl-4H-1,2,4-triazol-3-yl)cyclobutyl)pyridin-2-yl)-6-(((1-methylcyclobutyl)amino)methyl)-4-(trifluoromethyl)isoindolin-1-one]
–	–	6 nM	6.6 nM	(0.91x)	CCOc1cc([C@]2(c3nncn3C)C[C@H](C)C2)cc(N2Cc3c(cc(CNC4(C)CCC4)cc3C(F)(F)F)C2=O)n1 [Compound 4, 2-(6-ethoxy-4-((1r,3r)-3-methyl-1-(4-methyl-4H-1,2,4-triazol-3-yl)cyclobutyl)pyridin-2-yl)-6-(((1-methylcyclobutyl)amino)methyl)-4-(trifluoromethyl)isoindolin-1-one]
–	–	4.5 nM	7.1 nM	(0.64x)	CCNc1cc([C@]2(c3nncn3C)C[C@@H](C)C2)cc(N2Cc3c(cc(CNC4(C)CCC4)cc3C(F)(F)F)C2=O)n1 [Compound 5, 2-(6-(ethylamino)-4-((1s,3s)-3-methyl-1-(4-methyl-4H-1,2,4-triazol-3-yl)cyclobutyl)-pyridin-2-yl)-6-(((1-methylcyclobutyl)amino)methyl)-4-(trifluoromethyl)isoindolin-1-one]
–	–	6.2 nM	11 nM	(0.56x)	CCNc1cc([C@]2(c3nncn3C)C[C@H](C)C2)cc(N2Cc3c(cc(CNC4(C)CCC4)cc3C(F)(F)F)C2=O)n1 [Compound 6, 2-(6-(ethylamino)-4-((1r,3r)-3-methyl-1-(4-methyl-4H-1,2,4-triazol-3-yl)cyclobutyl)-pyridin-2-yl)-6-(((1-methylcyclobutyl)amino)methyl)-4-(trifluoromethyl)isoindolin-1-one]
–	–	166 nM	83 nM	(2.0x)	CO[C@]1(C)C[C@](c2cccc(N3Cc4c(cc(CNC5(C)CCC5)cc4C(F)(F)F)C3=O)c2)(c2nncn2C)C1 [Compound 29, 2-(3-((1s,3s)-3-methoxy-3-methyl-1-(4-methyl-4H-1,2,4-triazol-3-yl)cyclobutyl)phenyl)-6-(((1-methylcyclobutyl)amino)methyl)-4-(trifluoromethyl)isoindolin-1-one]
–	–	33 nM	15 nM	(2.2x)	Cn1cnnc1[C@]1(c2cccc(N3Cc4c(cc(CNC5(C)CCC5)cc4C(F)(F)F)C3=O)c2)C[C@@](C)(F)C1 [Compound 31, 2-(3-((1r,3r)-3-fluoro-3-methyl-1-(4-methyl-4H-1,2,4-triazol-3-yl)cyclobutyl)phenyl)-6-(((1-methylcyclobutyl)amino)methyl)-4-(trifluoromethyl)isoindolin-1-one]
